Where a name gives a salt, the structure may show the parent alone.
Columns and labels:
[1] = Reprecipitation of EPS by calcium chloride in pH 3.1 buffer, EPS in solution assayed by UV spectroscopy (Example 1); assay type: physicochemical; conditions: 640 mcg/ml EPS, pH 3.1 HCl/KCl buffer (I=0.1)
Procedure: To a solution in a pH 3.1 HCl/KCl buffer (I=0.1), containing 640 mcg/ml of Estramustine-17-phosphate disodium salt (EPS), were added appropriate quantities of calcium chloride in order to have drug:salt molar ratios in the range from 1:0 to 1:1. The samples were filtered and the quantity of Estramustine-17-phosphate sodium salt in solution was assayed by UV spectroscopy.

[2] = EPS in solution after addition of calcium chloride to solution of EPS and cyclodextrin, pH 3.1, UV spectroscopy (Examples 2-4); assay type: physicochemical; conditions: about 1 mg/ml EPS
Procedure: (§1) The samples were filtered and the quantity of Estramustine-17-phosphate disodium salt in solution was assayed by UV spectroscopy.
as §1, §1

[3] = Solubilization by cyclodextrins of previously formed precipitate of EPS with calcium, pH 3.1, UV spectroscopy (Examples 5-7); assay type: physicochemical; conditions: about 1 mg/ml EPS, CD added to preformed precipitate
Procedure: The samples were filtered and the quantity of Estramustine disodium salt in solution was assayed by UV spectroscopy.
as §1, §1

[4] = Solubility / reprecipitation of estramustine derivative with cyclodextrins (general statements); assay type: physicochemical; conditions: for effects of reprecipitation induced by cations: calcium or other cations
[5] = oral administration; interaction with foods and drinks; cited from earlier work

Row | Structure (SMILES) | EPS in solution ([1]; EPS:CaCl2 molar ratio 1:0) [%] | EPS in solution ([1]; EPS:CaCl2 molar ratio 1:0.25) [%] | EPS in solution ([1]; EPS:CaCl2 molar ratio 1:0.5) [%] | EPS in solution ([1]; EPS:CaCl2 molar ratio 1:1) [%] | EPS in solution ([2]; EPS:CD:CaCl2 molar ratio 1:0:1 (no CD)) [%] | EPS in solution ([2]; EPS:CD:CaCl2 molar ratio 1:0:2 (no CD)) [%] | EPS in solution ([2]; EPS:CD:CaCl2 molar ratio 1:0:4 (no CD)) [%] | EPS in solution ([3]; EPS:CaCl2:CD molar ratio 1:1:0 (no CD)) [%] | EPS in solution ([3]; EPS:CaCl2:CD molar ratio 1:2:0 (no CD)) [%] | EPS in solution ([3]; EPS:CaCl2:CD molar ratio 1:4:0 (no CD)) [%] | solubility of the drug itself ([4]; when mixed with cyclodextrins) | effects of reprecipitation induced by cations ([4]; with cyclodextrins, disodium salt) | reprecipitation of the drug [5] | effect of reprecipitation by anionic species ([4]; with cyclodextrins) | redissolution of already formed precipitate with calcium ([4]; with cyclodextrins) | passage in solution of the drug in the presence of calcium ions ([4]; with cyclodextrins, calcium ions in dissolution medium) | effects of reprecipitation induced by cations ([4]; with cyclodextrins)
1 | C[C@]12CC[C@@H]3c4ccc(OC(=O)N(CCCl)CCCl)cc4CC[C@H]3[C@@H]1CC[C@@H]2OP(=O)(O)O [EPS, Estramustine-17-phosphate disodium salt] | 100 | 42 | 21 | 14 | 16 | 4 | 4 | 16 | 4 | 4 | does not change in a significant way | quite negligible | induced by cations and in particular by calcium ions | – | – | – | –
2 | C[C@H](N)C(=O)O[C@H]1CC[C@H]2[C@@H]3CCc4cc(OC(=O)N(CCCl)CCCl)ccc4[C@H]3CC[C@]12C [Estramustine-17-L-alaninate] | – | – | – | – | – | – | – | – | – | – | – | – | induced by anionic species, such as chlorine ions | avoiding any effect of reprecipitation by anionic species | – | – | –
3 | C[C@]12CC[C@@H]3c4ccc(OC(=O)N(CCCl)CCCl)cc4CC[C@H]3[C@@H]1CC[C@@H]2OP(=O)(O)O [Estramustine-17-phosphate] | – | – | – | – | – | – | – | – | – | – | – | – | – | – | redissolve the already formed precipitate | permit the passage in solution of the drug | avoid the reprecipitation
